Test results from patent US9376429B2, “Sodium channel blockers, preparation method thereof and use thereof” (Daewoong Pharmaceutical Co., Ltd., priority 2012, dated 2016).

These molecules were tested against T1, sodium ion channel (Nav1.7) (Homo sapiens, UniProt Q15858) (assay: Blocking effect against sodium ion channel (Nav1.7), IonFlux16 auto patch clamp, hNav1.7 HEK293 cells). Settings: peak current after 50 seconds treatment, eight concentrations.
T1 construct: host or cells: HEK293
Assay type: cell-based
Experimental: In order to measure the activities of the inventive compounds as antagonists, an experiment on a blocking effect against the sodium ion channel (Nav1.7) was carried out as follows.
The hNav1.7 HEK293 cell line used was a cell line having a human sodium ion channel 1.7 gene (type IX voltage-gated sodium channel alpha subunit) in human embryonic kidney (HEK) 293 cells and was purchased from Millipore. The medium used was prepared by adding 1% 100×NEAA and 10% heat inactivated FBS to DMEM F-12 and adding 1% P/S as an antibiotic thereto. G-418 as a […] was added during subculture, and the hNav1.7 HEK293 cells were cultured to a confluence of about 80% in a T75 flask in a 5% CO2 incubator at 37° C. for 2 or 3 days and detached from the flask by treatment with 0.25% trypsin solution. Then, the cells were collected by centrifugation and used in the experiment.
The compounds prepared in the Examples of the present invention were dissolved in dimethyl sulfoxide (DMSO) and used in the experiment. 90 mM and 10 mM DMSO stock solutions were prepared from each of the compounds and diluted in an extracellular solution (4 mM KCl, 138 mM NaCl, 1 mM MgCl2, 1.8 mM CaCl2, 5.6 mM glucose, 10 mM HEPES, pH 7.45) at various concentrations so that the final concentration of each compound in DMSO was 0.3% or less.
To measure the sodium ion channel blocking effect, an IonFlux16 Auto patch clamp system (Fluxion, Inc.) and a plate for exclusive use were used. The cells were distributed in an extracellular solution (4 mM KCl, 138 mM NaCl, 1 mM MgCl2, 1.8 mM CaCl2, 5.6 mM glucose, 10 mM HEPES, pH 7.45), and then dispensed in the specified region of the plate, and each of the prepared compound samples was diluted at various concentrations, and then dispensed in the specified region of the plate.
Specifically, eight concentrations per compound were set, and percent inhibition was determined by calculating the percentage of inhibition of the peak current, generated after treating the cells with each concentration of the compound for 50 seconds, relative to the peak current generated before treatment with the compound, and the IC50 value was calculated using the Sigma plot program. In Table 2 below, the percent inhibition of Nav1.7 is rated as follows: […]

T1 sequence (Q15858 whole entry): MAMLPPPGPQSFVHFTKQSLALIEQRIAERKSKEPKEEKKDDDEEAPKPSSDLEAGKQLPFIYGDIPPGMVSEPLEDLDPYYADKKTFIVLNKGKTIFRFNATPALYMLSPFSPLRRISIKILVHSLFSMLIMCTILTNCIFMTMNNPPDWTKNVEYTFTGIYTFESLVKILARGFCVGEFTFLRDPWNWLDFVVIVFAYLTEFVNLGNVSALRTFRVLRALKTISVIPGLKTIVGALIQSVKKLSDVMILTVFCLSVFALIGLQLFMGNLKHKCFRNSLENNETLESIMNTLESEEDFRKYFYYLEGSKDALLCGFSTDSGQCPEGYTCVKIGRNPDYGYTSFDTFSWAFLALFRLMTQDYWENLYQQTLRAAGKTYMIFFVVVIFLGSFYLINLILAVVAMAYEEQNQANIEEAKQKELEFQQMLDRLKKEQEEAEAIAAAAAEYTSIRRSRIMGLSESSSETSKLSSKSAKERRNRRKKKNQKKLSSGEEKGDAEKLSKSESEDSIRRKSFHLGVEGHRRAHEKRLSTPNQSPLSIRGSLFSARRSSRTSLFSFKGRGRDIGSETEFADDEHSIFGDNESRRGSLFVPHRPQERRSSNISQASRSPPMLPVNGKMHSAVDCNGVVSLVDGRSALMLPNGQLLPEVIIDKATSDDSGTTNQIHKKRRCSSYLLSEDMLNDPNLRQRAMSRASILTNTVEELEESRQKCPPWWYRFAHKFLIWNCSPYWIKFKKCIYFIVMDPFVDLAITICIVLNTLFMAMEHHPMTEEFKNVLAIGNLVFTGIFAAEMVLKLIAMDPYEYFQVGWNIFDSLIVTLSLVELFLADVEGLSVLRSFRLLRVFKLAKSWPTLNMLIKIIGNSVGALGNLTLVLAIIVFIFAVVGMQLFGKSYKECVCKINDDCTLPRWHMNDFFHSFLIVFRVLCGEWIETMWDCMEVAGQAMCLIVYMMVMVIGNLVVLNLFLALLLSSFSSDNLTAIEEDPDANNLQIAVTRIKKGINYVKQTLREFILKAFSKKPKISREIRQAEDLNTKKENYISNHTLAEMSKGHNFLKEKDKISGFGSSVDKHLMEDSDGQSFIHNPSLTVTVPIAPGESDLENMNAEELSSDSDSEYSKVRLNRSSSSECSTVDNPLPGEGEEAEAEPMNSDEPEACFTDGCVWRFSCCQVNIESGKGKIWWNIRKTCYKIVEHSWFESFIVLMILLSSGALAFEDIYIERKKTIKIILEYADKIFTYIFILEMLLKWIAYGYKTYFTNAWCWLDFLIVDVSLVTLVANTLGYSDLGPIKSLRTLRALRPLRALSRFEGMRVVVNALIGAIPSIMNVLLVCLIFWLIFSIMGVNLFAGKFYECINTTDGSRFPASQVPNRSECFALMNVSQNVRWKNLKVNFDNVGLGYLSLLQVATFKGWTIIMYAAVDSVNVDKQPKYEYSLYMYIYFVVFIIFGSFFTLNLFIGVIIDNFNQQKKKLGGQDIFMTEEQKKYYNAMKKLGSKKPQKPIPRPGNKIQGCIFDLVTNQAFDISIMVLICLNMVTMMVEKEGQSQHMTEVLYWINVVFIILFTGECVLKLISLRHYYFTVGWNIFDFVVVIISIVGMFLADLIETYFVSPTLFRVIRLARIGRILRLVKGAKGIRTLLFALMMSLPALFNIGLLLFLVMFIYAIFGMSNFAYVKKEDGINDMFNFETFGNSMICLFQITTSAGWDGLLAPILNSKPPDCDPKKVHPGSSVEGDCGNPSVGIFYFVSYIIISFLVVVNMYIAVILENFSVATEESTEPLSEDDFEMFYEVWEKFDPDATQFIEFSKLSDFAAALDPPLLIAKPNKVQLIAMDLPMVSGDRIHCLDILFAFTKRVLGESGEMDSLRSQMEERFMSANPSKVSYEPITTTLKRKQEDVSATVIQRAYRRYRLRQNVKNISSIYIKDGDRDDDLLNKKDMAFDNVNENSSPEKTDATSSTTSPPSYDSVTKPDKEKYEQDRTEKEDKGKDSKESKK

IC50 [nM] | Structure (SMILES)
> 100 | Cn1cc(-c2nc(-c3cccnc3F)ccc2Oc2ccc(S(=O)(=O)Nc3nccs3)cc2C#N)cn1 [Example 123, 3-cyano-4-((2′-fluoro-6-(1-methyl-1H-pyrazol-4-yl)-[2,3′-bipyridin]-5-yl)oxy)-N-(thiazol-2-yl)benzenesulfonamide]
> 100 | N#Cc1cc(S(=O)(=O)Nc2nccs2)ccc1Oc1cnc(-c2ccccc2)cc1-c1cncnc1 [Example 34, 3-cyano-4-((6-phenyl-4-(pyrimidin-5-yl)pyridin-3-yl)oxy)-N-(thiazol-2-yl)benzenesulfonamide]
> 100 | Cc1noc(C)c1-c1cc(-c2ccccc2)ncc1Oc1ccc(S(=O)(=O)Nc2nccs2)cc1C#N [Example 37, 3-cyano-4-((4-(3,5-dimethylisoxazol-4-yl)-6-phenylpyridin-3-yl)oxy)-N-(thiazol-2-yl)benzenesulfonamide]
> 100 | O=S(=O)(Nc1cscn1)c1cc(Cl)c(Oc2cnc(-c3ccc(F)cc3)cc2-c2ccoc2)cc1F [Example 61, 5-chloro-2-fluoro-4-((6-(4-fluorophenyl)-4-(furan-3-yl)pyridin-3-yl)oxy)-N-(thiazol-4-yl)benzenesulfonamide]
> 100 | N#Cc1cc(S(=O)(=O)Nc2nccs2)ccc1Oc1ccc(-c2cccnc2F)nc1-c1ccoc1 [Example 103, 3-cyano-4-((2′-fluoro-6-(furan-3-yl)-[2,3′-bipyridin]-5-yl)oxy)-N-(thiazol-2-yl)benzenesulfonamide]
> 100 | O=S(=O)(Nc1cscn1)c1cc(Cl)c(Oc2cnc(-c3cccc(F)c3)cc2-c2ccoc2)cc1F [Example 59, 5-chloro-2-fluoro-4-((6-(3-fluorophenyl)-4-(furan-3-yl)pyridin-3-yl)oxy)-N-(thiazol-4-yl)benzenesulfonamide]
> 100 | O=S(=O)(Nc1cscn1)c1cc(Cl)c(Oc2cnc(-c3cccc(F)c3)cc2-c2ccnc(N3CCCCC3)c2)cc1F [Example 102, 5-chloro-2-fluoro-4-((6-(3-fluorophenyl)-2′-(piperidin-1-yl)-[4,4′-bipyridin]-3-yl)oxy)-N-(thiazol-4-yl)benzenesulfonamide]
51 to 100 | Cn1nccc1-c1nc(-c2cccc(F)c2)ccc1Oc1ccc(S(=O)(=O)Nc2nccs2)cc1C#N [Example 117, 3-cyano-4-((6-(3-fluorophenyl)-2-(1-methyl-1H-pyrazol-5-yl)pyridin-3-yl)oxy)-N-(thiazol-2-yl)benzenesulfonamide]
> 100 | N#Cc1cc(S(=O)(=O)Nc2nccs2)ccc1Oc1ccc(-c2cccnc2)nc1-c1ccoc1 [Example 105, 3-cyano-4-((6-(furan-3-yl)-[2,3′-bipyridin]-5-yl)oxy)-N-(thiazol-2-yl)benzenesulfonamide]
> 100 | N#Cc1cc(S(=O)(=O)Nc2cscn2)ccc1Oc1cnc(-c2cccc(F)c2)cc1-c1cccnc1 [Example 84, 3-cyano-4-((6′-(3-fluorophenyl)-[3,4′-bipyridin]-3′-yl)oxy)-N-(thiazol-4-yl)benzenesulfonamide]
51 to 100 | N#Cc1cc(S(=O)(=O)Nc2nccs2)ccc1Oc1ccc(-c2ccc(F)nc2F)nc1-c1ccoc1 [Example 127, 3-cyano-4-((2′,6′-difluoro-6-(furan-3-yl)-[2,3′-bipyridin]-5-yl)oxy)-N-(thiazol-2-yl)benzenesulfonamide]
> 100 | N#Cc1cc(S(=O)(=O)Nc2nccs2)ccc1Oc1cnc(-c2ccncc2)cc1-c1ccoc1 [Example 14, 3-cyano-4-(4-(furan-3-yl)-2,4′-bipyridin-5-yloxy)-N-(thiazol-2-yl)benzenesulfonamide]
> 100 | O=S(=O)(Nc1nccs1)c1ccc(C(O)c2ccc(Cl)cc2-c2cccnc2)c(F)c1 (stereo not shown) [Example 145, 4-((4-chloro-2-(pyridin-3-yl)phenyl)(hydroxy)methyl)-3-fluoro-N-(thiazol-2-yl)benzenesulfonamide]
< 50 | N#Cc1cc(S(=O)(=O)Nc2nccs2)ccc1Oc1cnc(-c2ccc(F)nc2F)cc1-c1ccoc1 [Example 12, 3-cyano-4-(2′,6′-difluoro-4-(furan-3-yl)-2,3′-bipyridin-5-yloxy)-N-(thiazol-2-yl)benzenesulfonamide]
> 100 | O=S(=O)(Nc1nccs1)c1ccc(C(O)c2ccc(Cl)cc2-c2cccnc2)cc1 (stereo not shown) [Example 148, 4-((4-chloro-2-(pyridin-3-yl)phenyl)(hydroxy)methyl)-N-(thiazol-2-yl)benzenesulfonamide]
> 100 | Cn1cc(-c2cc(-c3ccccc3F)ncc2Oc2cc(F)c(S(=O)(=O)Nc3cscn3)cc2Cl)cn1 [Example 63, 5-chloro-2-fluoro-4-((6-(2-fluorophenyl)-4-(1-methyl-1H-pyrazol-4-yl)pyridin-3-yl)oxy)-N-(thiazol-4-yl)benzenesulfonamide 2,2,2-trifluoroacetate]
> 100 | Cn1nccc1-c1nc(-c2ccc(F)nc2F)ccc1Oc1ccc(S(=O)(=O)Nc2nccs2)cc1C#N [Example 128, 3-cyano-4-((2′,6′-difluoro-6-(1-methyl-1H-pyrazol-5-yl)-[2,3′-bipyridin]-5-yl)oxy)-N-(thiazol-2-yl)benzenesulfonamide]
> 100 | O=S(=O)(Nc1cscn1)c1cc(Cl)c(Oc2cnc(-c3ccc(F)nc3F)cc2-c2ccoc2)cc1F [Example 58, 5-chloro-4-((2′,6′-difluoro-4-(furan-3-yl)-[2,3′-bipyridin]-5-yl)oxy)-2-fluoro-N-(thiazol-4-yl)benzenesulfonamide]
> 100 | Cn1nccc1-c1cc(-c2cccc(F)c2)ncc1Oc1cc(F)c(S(=O)(=O)Nc2cscn2)cc1Cl [Example 71, 5-chloro-2-fluoro-4-((6-(3-fluorophenyl)-4-(1-methyl-1H-pyrazol-5-yl)pyridin-3-yl)oxy)-N-(thiazol-4-yl)benzenesulfonamide]
> 100 | N#Cc1cc(S(=O)(=O)Nc2cscn2)ccc1Oc1cnc(-c2ccc(F)c(F)c2)cc1-c1cn[nH]c1 [Example 91, 3-cyano-4-((6-(3,4-difluorophenyl)-4-(1H-pyrazol-4-yl)pyridin-3-yl)oxy)-N-(thiazol-4-yl)benzenesulfonamide]
> 100 | O=S(=O)(Nc1cscn1)c1cc(Cl)c(Oc2cnc(-c3cccc(F)c3)cc2-c2ccnc(N3CCNCC3)n2)cc1F [Example 72, 5-chloro-2-fluoro-4-((6-(3-fluorophenyl)-4-(2-(piperazin-1-yl)pyrimidin-4-yl)pyridin-3-yl)oxy)-N-(thiazol-4-yl)benzenesulfonamide]
> 100 | Cn1cc(-c2cc(-c3ccc(F)cc3)ncc2Oc2cc(F)c(S(=O)(=O)Nc3cscn3)cc2Cl)cn1 [Example 65, 5-chloro-2-fluoro-4-((6-(4-fluorophenyl)-4-(1-methyl-1H-pyrazol-4-yl)pyridin-3-yl)oxy)-N-(thiazol-4-yl)benzenesulfonamide 2,2,2-trifluoroacetate]
> 100 | Cn1nccc1-c1cc(-c2ccnc(F)c2)ncc1Oc1ccc(S(=O)(=O)Nc2nccs2)cc1C#N [Example 27, 3-cyano-4-((2′-fluoro-4-(1-methyl-1H-pyrazol-5-yl)-[2,4′-bipyridin]-5-yl)oxy)-N-(thiazol-2-yl)benzenesulfonamide]
51 to 100 | O=S(=O)(Nc1cscn1)c1cc(Cl)c(Oc2ccc(-c3ccc(F)cc3)nc2-c2ccoc2)cc1F [Example 131, 5-chloro-2-fluoro-4-((6-(4-fluorophenyl)-2-(furan-3-yl)pyridin-3-yl)oxy)-N-(thiazol-4-yl)benzenesulfonamide]
> 100 | N#Cc1cc(S(=O)(=O)Nc2nccs2)ccc1Oc1cnc(-c2ccc(F)nc2F)cc1-c1ccncc1 [Example 53, 3-cyano-4-((2,6-difluoro-[3,2′:4′,4″-terpyridin]-5′-yl)oxy)-N-(thiazol-2-yl)benzenesulfonamide]
< 50 | N#Cc1cc(S(=O)(=O)Nc2nccs2)ccc1Oc1cnc(-c2ccccc2)cc1-c1ccoc1 [Example 1, 3-cyano-4-(4-(furan-3-yl)-6-phenylpyridin-3-yloxy)-N-(thiazol-2-yl)benzenesolfonamide]
> 100 | O=S(=O)(Nc1nccs1)c1ccc(C(O)c2cccnc2-c2ccoc2)cc1 (stereo not shown) [Example 156, 4-((2-(furan-3-yl)pyridin-3-yl)(hydroxy)methyl)-N-(thiazol-2-yl)benzenesulfonamide]
> 100 | Cn1nccc1-c1nc(-c2ccc(F)nc2F)ccc1Oc1cc(F)c(S(=O)(=O)Nc2cscn2)cc1Cl [Example 134, 5-chloro-4-((2′,6′-difluoro-6-(1-methyl-1H-pyrazol-5-yl)-[2,3′-bipyridin]-5-yl)oxy)-2-fluoro-N-(thiazol-4-yl)benzenesulfonamide]
